biological target: T1, F508del (Homo sapiens, UniProt P13569, DEL508-508); experiment: Protocol 1: membrane potential optical assay (FLIPR III, voltage sensing dye), identification of potentiator compounds; assay type: cell-based; conditions: Table 3, compounds of Table 1
T1 construct: expressed in transfected cells
Source text: Membrane Potential Optical Methods for Assaying F508del Modulation Properties of Compounds
The assay utilizes fluorescent voltage sensing dyes to measure changes in membrane potential using a fluorescent plate reader (e.g., FLIPR III, Molecular Devices, Inc.) as a readout for increase in functional F508del in NIH 3T3 cells. The driving force for the response is the creation of a chloride ion gradient in conjunction with channel activation by a single liquid addition step after the cells have previously been treated with compounds and subsequently loaded with a voltage sensing dye.
Identification of Potentiator Compounds
To identify potentiators of F508del, a double-addition HTS assay format was developed. This HTS assay utilizes fluorescent voltage sensing dyes to measure changes in membrane potential on the FLIPR III as a measurement for increase in gating (conductance) of F508del in temperature-corrected F508del NIH 3T3 cells. The driving force for the response is a Cl^− ion gradient in conjunction with channel activation with forskolin in a single liquid addition step using a fluorescent plate reader such as FLIPR III after the cells have previously been treated with potentiator compounds (or DMSO vehicle control) and subsequently loaded with a redistribution dye.
Bath Solution #1: (in mM) NaCl 160, KCl 4.5, CaCl2 2, MgCl2 1, HEPES 10, pH 7.4 with NaOH.
Chloride-free bath solution: Chloride salts in Bath Solution #1 (above) are substituted with gluconate salts.
NIH3T3 mouse fibroblasts stably expressing F508del are used for optical measurements of membrane potential. The cells are maintained at 37° C. in 5% CO2 and 90% humidity in Dulbecco's modified Eagle's medium supplemented with 2 mM glutamine, 10% fetal bovine serum, 1×NEAA, β-ME, 1× pen/strep, and 25 mM HEPES in 175 cm^2 culture flasks. For all optical assays, the cells were seeded at ˜20,000/well in 384-well matrigel-coated plates and cultured for 2 hrs at 37° C. before culturing at 27° C. for 24 hrs. for the potentiator assay. For the correction assays, the cells are cultured at 27° C. or 37° C. with and without compounds for 16-24 hours.

T1 sequence (P13569 with tags, fused parts or gaps DEL508-508): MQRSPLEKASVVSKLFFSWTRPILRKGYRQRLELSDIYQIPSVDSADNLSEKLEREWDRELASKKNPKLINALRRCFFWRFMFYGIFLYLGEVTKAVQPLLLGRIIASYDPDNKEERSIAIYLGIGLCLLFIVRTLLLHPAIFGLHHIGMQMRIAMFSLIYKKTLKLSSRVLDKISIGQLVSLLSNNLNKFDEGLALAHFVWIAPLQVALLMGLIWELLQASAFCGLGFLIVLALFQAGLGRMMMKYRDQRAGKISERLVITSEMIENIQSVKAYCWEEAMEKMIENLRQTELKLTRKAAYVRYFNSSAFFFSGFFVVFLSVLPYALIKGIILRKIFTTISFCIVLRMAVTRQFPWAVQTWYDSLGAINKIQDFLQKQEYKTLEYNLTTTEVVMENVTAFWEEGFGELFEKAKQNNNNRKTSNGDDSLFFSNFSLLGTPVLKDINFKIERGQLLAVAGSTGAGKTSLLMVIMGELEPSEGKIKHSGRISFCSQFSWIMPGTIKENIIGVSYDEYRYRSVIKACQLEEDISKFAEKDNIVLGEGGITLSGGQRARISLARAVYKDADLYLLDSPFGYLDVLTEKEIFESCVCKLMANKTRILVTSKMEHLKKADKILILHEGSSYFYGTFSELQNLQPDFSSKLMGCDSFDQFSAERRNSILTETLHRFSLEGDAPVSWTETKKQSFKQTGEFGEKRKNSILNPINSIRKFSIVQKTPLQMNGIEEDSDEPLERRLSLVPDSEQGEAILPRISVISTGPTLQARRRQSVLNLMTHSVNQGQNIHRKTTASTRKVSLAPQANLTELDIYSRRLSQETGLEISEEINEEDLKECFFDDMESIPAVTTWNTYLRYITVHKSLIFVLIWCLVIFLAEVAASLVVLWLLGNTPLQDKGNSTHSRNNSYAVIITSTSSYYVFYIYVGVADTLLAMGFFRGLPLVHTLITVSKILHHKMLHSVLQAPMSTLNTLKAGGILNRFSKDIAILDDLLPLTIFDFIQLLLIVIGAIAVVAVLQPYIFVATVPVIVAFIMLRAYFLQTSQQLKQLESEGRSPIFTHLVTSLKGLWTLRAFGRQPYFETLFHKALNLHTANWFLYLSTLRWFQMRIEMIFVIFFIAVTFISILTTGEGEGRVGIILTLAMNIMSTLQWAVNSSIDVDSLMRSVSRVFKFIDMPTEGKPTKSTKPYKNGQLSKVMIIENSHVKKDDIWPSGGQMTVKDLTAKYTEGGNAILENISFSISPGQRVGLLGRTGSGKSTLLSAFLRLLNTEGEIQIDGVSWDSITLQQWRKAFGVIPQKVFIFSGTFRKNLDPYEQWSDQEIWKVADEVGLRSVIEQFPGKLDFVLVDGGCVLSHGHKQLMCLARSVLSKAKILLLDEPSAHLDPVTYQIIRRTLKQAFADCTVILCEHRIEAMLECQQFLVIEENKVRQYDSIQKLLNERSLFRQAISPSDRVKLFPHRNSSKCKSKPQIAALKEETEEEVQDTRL

SMILES	EC30
COc1cccnc1S(=O)(=O)NC(=O)C1(C)c2ccccc2CN1Cc1c(C)cc(C)cc1C (stereo not drawn) [Compound 825, N-[(3-methoxy-2-pyridyl)sulfonyl]-1-methyl-2-[(2,4,6-trimethylphenyl)methyl]isoindoline-1-carboxamide]	++ (“++” means between 3 uM and 10 uM)
Cc1cc(C)c(Oc2nc(C3(C)CC3)ccc2C(=O)NS(=O)(=O)c2cccc(N)c2)c(C)c1 [Compound 826, N-(3-aminophenyl)sulfonyl-6-(1-methylcyclopropyl)-2-(2,4,6-trimethylphenoxy)pyridine-3-carboxamide]	+++ (“+++” means <3 uM)
Cc1nc(N(C)CC(C)C)ccc1-c1ccc(C(=O)NS(=O)(=O)c2cccc(N)n2)c(N2CC(C)CC2(C)C)n1 (stereo not drawn) [Compound 827, N-[(6-amino-2-pyridyl)sulfonyl]-6-[6-[isobutyl(methyl)amino]-2-methyl-3-pyridyl]-2-(2,2,4-trimethylpyrrolidin-1-yl)pyridine-3-carboxamide]	+++ (“+++” means <3 uM)
COc1cc(OC)cc(-c2ccc(C(=O)NS(=O)(=O)c3cccc(N)n3)c(Oc3c(C)cc(C)cc3C)n2)c1 [Compound 828, N-[(6-amino-2-pyridyl)sulfonyl]-6-(3,5-dimethoxyphenyl)-2-(2,4,6-trimethylphenoxy)pyridine-3-carboxamide]	+++ (“+++” means <3 uM)
CC(C)(C)c1ccc(C(=O)NS(=O)(=O)c2cccc(N)n2)c(Oc2ccc(F)cc2F)n1 [Compound 829, N-[(6-amino-2-pyridyl)sulfonyl]-6-tert-butyl-2-(2,4-difluorophenoxy)pyridine-3-carboxamide]	+++ (“+++” means <3 uM)
COc1cc(F)ccc1-c1ccc(C(=O)NS(=O)(=O)c2cccc(N)n2)c(Oc2c(C)cc(C)cc2C)n1 [Compound 830, N-[(6-amino-2-pyridyl)sulfonyl]-6-(4-fluoro-2-methoxy-phenyl)-2-(2,4,6-trimethylphenoxy)pyridine-3-carboxamide]	+++ (“+++” means <3 uM)
CCc1ccc(-c2ccc(C(=O)NS(=O)(=O)c3ccc[nH]c3=O)c(Oc3c(C)cc(C)cc3C)n2)cc1 [Compound 831, 6-(4-ethylphenyl)-N-[(2-oxo-1H-pyridin-3-yl)sulfonyl]-2-(2,4,6-trimethylphenoxy)pyridine-3-carboxamide]	+++ (“+++” means <3 uM)
CCCOc1cc(-c2ccc(C(=O)NS(=O)(=O)c3ccn[nH]3)c(N3[C@H](C)CC[C@@H]3C)n2)ccc1Cl [Compound 832, 6-(4-chloro-3-propoxy-phenyl)-2-[(2R,5S)-2,5-dimethylpyrrolidin-1-yl]-N-(1H-pyrazol-5-ylsulfonyl)pyridine-3-carboxamide]	+++ (“+++” means <3 uM)

Other lines, results leading:

EC30	SMILES
+++ (“+++” means <3 uM)	COc1cccc(-c2nc(N3CC(C)CC3(C)C)c(C(=O)NS(=O)(=O)c3cccc(N)n3)cc2C)c1 (stereo not drawn) [Compound 833, N-[(6-amino-2-pyridyl)sulfonyl]-6-(3-methoxyphenyl)-5-methyl-2-(2,2,4-trimethylpyrrolidin-1-yl)pyridine-3-carboxamide]
+++ (“+++” means <3 uM)	CC(C)Oc1ccc(-c2ccc(C(=O)NS(=O)(=O)c3cccc(N)n3)c(N3CCCC3(C)C)n2)cn1 [Compound 834, N-[(6-amino-2-pyridyl)sulfonyl]-2-(2,2-dimethylpyrrolidin-1-yl)-6-(6-isopropoxy-3-pyridyl)pyridine-3-carboxamide]
++ (“++” means between 3 uM and 10 uM)	CCOc1cc(F)cc(-c2ccc(C(=O)NS(=O)(=O)c3ccc[nH]c3=O)c(Oc3c(C)cc(C)cc3C)n2)c1 [Compound 835, 6-(3-ethoxy-5-fluoro-phenyl)-N-[(2-oxo-1H-pyridin-3-yl)sulfonyl]-2-(2,4,6-trimethylphenoxy)pyridine-3-carboxamide]
++ (“++” means between 3 uM and 10 uM)	CC(C)Oc1ccc(-c2ccc(C(=O)NS(=O)(=O)c3cccc(N)n3)c(N3CCC[C@H](C)C3)n2)cn1 [Compound 836, N-[(6-amino-2-pyridyl)sulfonyl]-6-(6-isopropoxy-3-pyridyl)-2-[(3S)-3-methyl-1-piperidyl]pyridine-3-carboxamide]

Reference: patent US10758534B2 (Vertex Pharmaceuticals Incorporated, priority 2014, dated 2020)
